Assay results reported in patent US20240228459A1 (Boundless Bio, Inc., priority 2022, published 2024).

Key:
Wee1 = Wee1 (Homo sapiens, UniProt P30291); assay: Wee1 pCDK1 activity (known assay); format: cell-based
Experimental: (§1) The Wee1 pCDK1 and PLK1 activities were determined using known assays.

PLK1 = PLK1 (Homo sapiens, UniProt P53350); assay: PLK1 activity (known assay); format: biochemical
Experimental: as §1

Wee1, sequence (P30291 whole entry, species assumed): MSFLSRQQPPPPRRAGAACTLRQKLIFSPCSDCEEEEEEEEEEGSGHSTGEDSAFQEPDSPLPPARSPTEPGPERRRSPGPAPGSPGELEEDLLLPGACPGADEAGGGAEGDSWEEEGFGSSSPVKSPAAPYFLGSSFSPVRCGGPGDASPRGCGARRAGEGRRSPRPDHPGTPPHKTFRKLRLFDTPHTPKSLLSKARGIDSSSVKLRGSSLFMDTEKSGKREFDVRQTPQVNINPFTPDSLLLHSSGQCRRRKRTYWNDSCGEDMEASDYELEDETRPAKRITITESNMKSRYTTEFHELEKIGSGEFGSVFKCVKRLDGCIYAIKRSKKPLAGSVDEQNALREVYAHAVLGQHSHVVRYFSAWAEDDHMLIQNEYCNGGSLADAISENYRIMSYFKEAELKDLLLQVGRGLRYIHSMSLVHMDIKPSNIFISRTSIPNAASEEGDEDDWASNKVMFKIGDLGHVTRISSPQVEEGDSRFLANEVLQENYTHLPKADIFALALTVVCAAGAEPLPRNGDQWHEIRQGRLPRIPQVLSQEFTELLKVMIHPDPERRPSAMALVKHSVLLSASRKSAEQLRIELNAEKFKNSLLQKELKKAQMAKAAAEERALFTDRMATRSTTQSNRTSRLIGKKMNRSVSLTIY
PLK1, sequence (P53350 whole entry, species assumed): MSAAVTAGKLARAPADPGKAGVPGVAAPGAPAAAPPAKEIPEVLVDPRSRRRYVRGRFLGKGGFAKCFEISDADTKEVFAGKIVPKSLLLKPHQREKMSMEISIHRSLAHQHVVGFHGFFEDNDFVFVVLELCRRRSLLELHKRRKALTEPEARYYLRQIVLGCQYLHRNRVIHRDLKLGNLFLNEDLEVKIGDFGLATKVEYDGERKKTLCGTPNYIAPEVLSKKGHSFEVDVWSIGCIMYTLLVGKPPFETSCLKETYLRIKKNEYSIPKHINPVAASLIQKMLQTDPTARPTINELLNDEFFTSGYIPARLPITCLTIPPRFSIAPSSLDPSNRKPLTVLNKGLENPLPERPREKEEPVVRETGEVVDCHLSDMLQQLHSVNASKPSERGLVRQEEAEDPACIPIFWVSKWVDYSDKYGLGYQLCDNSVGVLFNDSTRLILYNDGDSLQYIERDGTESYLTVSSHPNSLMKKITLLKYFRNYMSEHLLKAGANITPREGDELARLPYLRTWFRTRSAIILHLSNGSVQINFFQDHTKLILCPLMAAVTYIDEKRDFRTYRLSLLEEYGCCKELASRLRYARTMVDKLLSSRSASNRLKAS

Row | IC50 (Wee1) [nM] | IC50 (PLK1) [nM] | Structure (SMILES)
1 | 100 to 250 | ≤ 100 | CCC1(O)CCc2ccc(Nc3nc(Nc4ccc(N5CCC6(CCN(C)CC6)CC5)cc4)ncc3C#N)nc21 (centres unmarked) [Example 39, 4-[(7-ethyl-7-hydroxy-5,6-dihydrocyclopenta[b]pyridin-2-yl)amino]-2-[4-(9-methyl-3,9-diazaspiro[5.5]undecan-3-yl)anilino]pyrimidine-5-carbonitrile]
2 | 250 to 500 | ≤ 100 | CCC1(O)CCc2ccc(Nc3nc(Nc4ccc(N5CCN(C)C(C)C5)cc4)ncc3C#N)nc21 (centres unmarked) [Example 52, 2-[4-(3,4-dimethylpiperazin-1-yl)anilino]-4-[(7-ethyl-7-hydroxy-5,6-dihydrocyclopenta[b]pyridin-2-yl)amino]pyrimidine-5-carbonitrile]
3 | ≤ 100 | ≤ 100 | CCC1(O)CCc2ccc(Nc3nc(Nc4ccc(N5CC6CCC5CN6C)cc4)ncc3C#N)nc21 (centres unmarked) [Example 24, 4-[(7-ethyl-7-hydroxy-5,6-dihydrocyclopenta[b]pyridin-2-yl)amino]-2-[4-(5-methyl-2,5-diazabicyclo[2.2.2]octan-2-yl)anilino]pyrimidine-5-carbonitrile]
4 | 250 to 500 | 100 to 250 | CCC1(O)CCc2ccc(Nc3nc(Nc4ccc(C5CCN(C)CC5)c(Cl)c4)ncc3C#N)nc21 (centres unmarked) [Example 42, 2-[3-chloro-4-(1-methyl-4-piperidyl)anilino]-4-[(7-ethyl-7-hydroxy-5,6-dihydrocyclopenta[b]pyridin-2-yl)amino]pyrimidine-5-carbonitrile]
